The values that follow come from patent US8168667B2 (Galapagos NV, priority 2006, dated 2012).

Read-outs that look alike come from different tables or passages of the source.

In this assay the target is T1, human androgen receptor (hAR) (Homo sapiens, UniProt P10275).
T1 sequence (P10275 1-920): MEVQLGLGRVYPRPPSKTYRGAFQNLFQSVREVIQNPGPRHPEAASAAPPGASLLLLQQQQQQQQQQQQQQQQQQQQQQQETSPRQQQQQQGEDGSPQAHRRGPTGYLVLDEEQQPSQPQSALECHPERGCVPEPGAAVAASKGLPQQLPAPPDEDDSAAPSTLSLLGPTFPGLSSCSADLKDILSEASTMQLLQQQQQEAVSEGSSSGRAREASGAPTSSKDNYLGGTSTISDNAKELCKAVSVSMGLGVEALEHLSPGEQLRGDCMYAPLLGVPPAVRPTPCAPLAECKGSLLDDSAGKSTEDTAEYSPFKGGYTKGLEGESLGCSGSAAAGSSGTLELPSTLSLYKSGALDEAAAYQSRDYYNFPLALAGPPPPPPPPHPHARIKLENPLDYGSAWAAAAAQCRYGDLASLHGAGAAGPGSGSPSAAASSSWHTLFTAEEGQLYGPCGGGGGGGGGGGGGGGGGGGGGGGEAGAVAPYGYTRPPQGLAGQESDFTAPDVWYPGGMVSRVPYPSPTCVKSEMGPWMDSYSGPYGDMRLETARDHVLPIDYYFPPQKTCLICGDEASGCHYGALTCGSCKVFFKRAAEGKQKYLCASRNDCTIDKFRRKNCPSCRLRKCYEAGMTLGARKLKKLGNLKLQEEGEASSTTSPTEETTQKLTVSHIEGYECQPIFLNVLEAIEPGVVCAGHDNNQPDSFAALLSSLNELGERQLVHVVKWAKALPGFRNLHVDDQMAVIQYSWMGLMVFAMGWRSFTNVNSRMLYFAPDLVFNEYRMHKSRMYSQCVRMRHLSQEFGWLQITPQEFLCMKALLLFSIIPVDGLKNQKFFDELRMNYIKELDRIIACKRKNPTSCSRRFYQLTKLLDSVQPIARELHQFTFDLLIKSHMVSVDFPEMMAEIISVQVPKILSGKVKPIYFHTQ
Briefly: Functional response test: hAR transactivation (luciferase reporter) in HALP2 cells. The format is cell-based. The settings on record: for EC50: agonism, HALP2 cells (HeLa, hAR + ARE-luciferase), 20 hours at 37° C. An excerpt: This test constitutes a method of identifying pure or partial agonists which mimic the effects of natural hormones, such as DHT (dihydrotestosterone) in the present case or, on the other hand, antagonists which inhibit them.
For this transactivation test, plasmids encoding a reporter gene and the human androgen receptor (hAR) are introduced together by transfection into the HeLa cell line. The reporter plasmid contains luciferase cDNA under the control of the AREs contained in the promoter sequences of the probasin gene (3xpbAREminicoll-luciferase/pGL3-puro). The expression of the reporter gene constitutes an indication of the transcriptional activity of hAR. It also encodes a protein allowing the cells expressing it to resist a treatment with puromycin. The plasmid encoding hAR contains the cDNA of hAR under the control of the Cytomegalovirus (CMV) promoter. It also encodes a protein allowing the cells expressing it to resist a treatment with neomycin. The treatment of cells with increasing amounts of potentially agonistic compounds will increase the expression of the reporter gene. To detect antagonists, on the other hand, increasing doses of test compounds are tested in the presence of […] of DHT. The expression of the reporter gene, which is constant for each dose of DHT, decreases when the concentration of the test compounds increases.
For this test, HeLa cells were obtained from the American Type Culture Collection (Rockville, Md.) and cultivated in DMEM medium containing 4.5 g/l of glucose, supplemented with Glutamax and with nonessential amino-acids and with 10% of foetal calf serum (SVF; Dominique Dutscher).
On the day before transfection, a million cells were seeded in DMEM medium without phenol red, supplemented with Glutamax and with desteroided SVF (5%) in Petri dishes. The cells were transfected with 4 μg of the puromycin resistance plasmids pcDNA3-hAR and 3xpbAREminicoll-luciferase/pGL3 using the reagent “Lipofectamine plus” (Invitrogen), following the supplier's recommendations. The day after transfection, the cells were seeded to different cell densities (10,000 to 100,000 cellules per Petri dish). Two days after transfection, the transfected cells were selected in DMEM medium without phenol red, supplemented with Glutamax and with desteroided SVF (5%) containing 400 μg/mL of G418 (Invitrogen) and 150 ng/mL of puromycin (Sigma). The culture medium was renewed weekly until resistant clones appeared. The resistant clones were removed and amplified before being tested for their functional response. […]
The functional response test was conducted on 96-well plates. The HALP2 cells were seeded (30,000 cells per well) 24 hours before the phase of stimulation in DMEM medium containing 4.5 g/L of glucose, supplemented with Glutamax and nonessential amino-acids, and with desteroided SVF (5%).
On the day of stimulation, the seeding medium was replaced by DMEM medium without phenol red, supplemented with Glutamax and with desteroided SVF (5%). […] The cells were placed in contact with the compounds for 20 hours at 37° C.
Background: In a reporter assay the amount or activity of a reporter protein is the signal.

Where [1] appears, read: antagonism, concentration which increases the EC50 of the DHT by a factor of 2, Schild regression, HALP2 cells.

For the molecule `C#CCN1C(=O)N(c2ccc(Cl)c(C(F)(F)F)c2)C(=O)C1c1ccc(O)cc1` (stereo not drawn) [Example 68], the “KSchild (nM) potency” value was determined as 24.49 nM.
Turning to `C#CCN1C(=O)N(c2ccc(F)c(C(F)(F)F)c2)C(=O)C1c1ccc(O)cc1` (stereo not drawn) [Example 69], the EC50 (usually the concentration that produces a half-maximal response) was 42.4 nM. Under setting [1], the “KSchild (nM) potency” value came out at 42.43 nM.
Taken in the same sequence, the figures for `C#CCN1C(=O)N(c2ccc(F)c(Cl)c2)C(=O)C1c1ccc(O)cc1` (stereo not drawn) [Example 70] were 20 nM and 20 nM.
Turning to `C#CCN1C(=O)N(c2ccc([N+](=O)[O-])c(C(F)(F)F)c2)C(=O)C1c1ccc(O)cc1` (stereo not drawn) [Example 71], the “KSchild (nM) potency” value amounted to 300 nM.
With `C#CCN1C(=O)N(c2cccc(C(F)(F)F)c2)C(=O)C1c1ccc(O)cc1` (stereo not drawn) [Example 72], the EC50 is 42.4 nM. Under setting [1], the “KSchild (nM) potency” value is 42.43 nM.
With `C#CCN1C(=O)N(c2ccc([N+](=O)[O-])cc2)C(=O)C1c1ccc(O)cc1` (stereo not drawn) [Example 73], the “KSchild (nM) potency” value was 13.77 nM.
Take `CCOC(=O)CCN1C(=O)N(c2ccc(C#N)c(C(F)(F)F)c2)C(=O)C1c1ccc(O)cc1` (stereo not drawn) [Example 74]: the “KSchild (nM) potency” value came out at 17.32 nM.
On the same count and under the same terms, with `CCOC(=O)CCN1C(=O)N(c2ccc([N+](=O)[O-])c(C(F)(F)F)c2)C(=O)C1c1ccc(O)cc1` (stereo not drawn) [Example 75] the figure was 600 nM.
Regarding `CCOC(=O)CCN1C(=O)N(c2ccc(F)c(F)c2)C(=O)C1c1ccc(O)cc1` (stereo not drawn) [Example 76], the concentration for a half-maximal effect (EC50) was determined as 200 nM. The “KSchild (nM) potency” value under setting [1] was determined as 200 nM.
`CCOC(=O)CCN1C(=O)N(c2ccc(Cl)c(C(F)(F)F)c2)C(=O)C1c1ccc(O)cc1` (stereo not drawn) [Example 77]: the EC50 worked out at 122 nM. Further, under setting [1], the “KSchild (nM) potency” value stood at 94.87 nM.
Taken in the same sequence, the figures for `CCOC(=O)CCN1C(=O)N(c2ccc(F)c(C(F)(F)F)c2)C(=O)C1c1ccc(O)cc1` (stereo not drawn) [Example 78] were 94.9 nM and 77.46 nM.
For `CCOC(=O)CCN1C(=O)N(c2ccc(F)c(Cl)c2)C(=O)C1c1ccc(O)cc1` (stereo not drawn) [Example 79] the same measures were 69.3 nM and 69.28 nM.
For `CCOC(=O)CCN1C(=O)N(c2cccc(C(F)(F)F)c2)C(=O)C1c1ccc(O)cc1` (stereo not drawn) [Example 80] the same measures were 80 nM and 80 nM.
Turning to `CCOC(=O)CCN1C(=O)N(c2ccc([N+](=O)[O-])cc2)C(=O)C1c1ccc(O)cc1` (stereo not drawn) [Example 81], the “KSchild (nM) potency” value worked out at 16.38 nM.
On the same count and under the same terms, the figure for `CCOCCCN1C(=O)N(c2ccc(C#N)c(C(F)(F)F)c2)C(=O)C1c1ccc(O)cc1` (stereo not drawn) [Example 82] is 30 nM.
Regarding `CCOCCCN1C(=O)N(c2ccc([N+](=O)[O-])c(C(F)(F)F)c2)C(=O)C1c1ccc(O)cc1` (stereo not drawn) [Example 83], the “KSchild (nM) potency” value turned out to be 565.69 nM.
In the case of `CCOCCCN1C(=O)N(c2ccc(Cl)c(Cl)c2)C(=O)C1c1ccc(O)cc1` (stereo not drawn) [Example 84], the EC50 is 24.5 nM. For the same molecule, under setting [1], the “KSchild (nM) potency” value is 17.32 nM.
Taken in the same sequence, the figures for `CCOCCCN1C(=O)N(c2ccc(F)c(F)c2)C(=O)C1c1ccc(O)cc1` (stereo not drawn) [Example 85] were 300 nM and 300 nM.
Taken in the same sequence, the figures for `CCOCCCN1C(=O)N(c2ccc(Cl)c(C(F)(F)F)c2)C(=O)C1c1ccc(O)cc1` (stereo not drawn) [Example 86] were 49 nM and 48.99 nM.
`CCOCCCN1C(=O)N(c2ccc(F)c(C(F)(F)F)c2)C(=O)C1c1ccc(O)cc1` (stereo not drawn) [Example 87]: the EC50 was 77.5 nM. The “KSchild (nM) potency” value under setting [1] was 77.46 nM.
On to `CCOCCCN1C(=O)N(c2ccc(F)c(Cl)c2)C(=O)C1c1ccc(O)cc1` (stereo not drawn) [Example 88], for which the EC50 was determined as 34.6 nM. For the same molecule, under setting [1], the “KSchild (nM) potency” value is listed as 34.64 nM.
As to `CCOCCCN1C(=O)N(c2cccc(C(F)(F)F)c2)C(=O)C1c1ccc(O)cc1` (stereo not drawn) [Example 89], the half-maximal effective concentration (EC50) is 200 nM. Moreover, under setting [1], the “KSchild (nM) potency” value is 200 nM.
For `N#CCN1C(=O)N(c2ccc(C#N)c(C(F)(F)F)c2)C(=O)C1c1ccc(O)cc1` (stereo not drawn) [Example 90], the “KSchild (nM) potency” value is 282.84 nM.
On to `N#CCN1C(=O)N(c2ccc(Cl)c(Cl)c2)C(=O)C1c1ccc(O)cc1` (stereo not drawn) [Example 91], for which the EC50 stood at 94.9 nM. Under setting [1], the “KSchild (nM) potency” value is recorded as 94.87 nM.
Taken in the same sequence, the figures for `N#CCN1C(=O)N(c2ccc(F)c(F)c2)C(=O)C1c1ccc(O)cc1` (stereo not drawn) [Example 92] were 1500 nM and 1500 nM.
Regarding `N#CCN1C(=O)N(c2ccc(Cl)c(C(F)(F)F)c2)C(=O)C1c1ccc(O)cc1` (stereo not drawn) [Example 93], the “KSchild (nM) potency” value is on record as 30 nM.
As for `N#CCN1C(=O)N(c2ccc(F)c(C(F)(F)F)c2)C(=O)C1c1ccc(O)cc1` (stereo not drawn) [Example 94], the concentration for a half-maximal effect (EC50) is 300 nM. Further, the “KSchild (nM) potency” value under setting [1] turned out to be 300 nM.
Take `N#CCN1C(=O)N(c2ccc(F)c(Cl)c2)C(=O)C1c1ccc(O)cc1` (stereo not drawn) [Example 95]: the EC50 is 632 nM. In addition, the “KSchild (nM) potency” value under setting [1] is 632.46 nM.
For `N#CCN1C(=O)N(c2cccc(C(F)(F)F)c2)C(=O)C1c1ccc(O)cc1` (stereo not drawn) [Example 96] the same measures were 693 nM and 692.82 nM.
With `N#Cc1ccc(N2C(=O)C(c3ccc(O)cc3)N(Cc3ccc4c(c3)OCO4)C2=O)cc1C(F)(F)F` (stereo not drawn) [Example 97], the “KSchild (nM) potency” value worked out at 28.28 nM.
On the same count and under the same terms, the figure for `O=C1C(c2ccc(O)cc2)N(Cc2ccc3c(c2)OCO3)C(=O)N1c1ccc([N+](=O)[O-])c(C(F)(F)F)c1` (stereo not drawn) [Example 98] is 94.87 nM.
Turning to `O=C1C(c2ccc(O)cc2)N(Cc2ccc3c(c2)OCO3)C(=O)N1c1ccc(Cl)c(Cl)c1` (stereo not drawn) [Example 99], the EC50 turned out to be 69.3 nM. Also, under setting [1], the “KSchild (nM) potency” value is 69.28 nM.
Turning to `O=C1C(c2ccc(O)cc2)N(Cc2ccc3c(c2)OCO3)C(=O)N1c1ccc(F)c(F)c1` (stereo not drawn) [Example 100], the EC50 was determined as 77.5 nM. For the same molecule, the “KSchild (nM) potency” value under setting [1] is on record as 77.46 nM.
For `O=C1C(c2ccc(O)cc2)N(Cc2ccc3c(c2)OCO3)C(=O)N1c1ccc(Cl)c(C(F)(F)F)c1` (stereo not drawn) [Example 101] the same measures were 245 nM and 244.95 nM.
Taken in the same sequence, the figures for `O=C1C(c2ccc(O)cc2)N(Cc2ccc3c(c2)OCO3)C(=O)N1c1ccc(F)c(C(F)(F)F)c1` (stereo not drawn) [Example 102] were 49 nM and 48.99 nM.
Taken in the same sequence, the figures for `O=C1C(c2ccc(O)cc2)N(Cc2ccc3c(c2)OCO3)C(=O)N1c1ccc(F)c(Cl)c1` (stereo not drawn) [Example 103] were 49 nM and 48.99 nM.
On to `O=C1C(c2ccc(O)cc2)N(Cc2ccc3c(c2)OCO3)C(=O)N1c1cccc(C(F)(F)F)c1` (stereo not drawn) [Example 104], for which the EC50 worked out at 200 nM. The “KSchild (nM) potency” value under setting [1] is on record as 200 nM.
As for `CN(C)CCN1C(=O)N(c2ccc(C#N)c(C(F)(F)F)c2)C(=O)C1c1ccc(O)cc1` (stereo not drawn) [Example 113], the “KSchild (nM) potency” value turned out to be 109.54 nM.
